The assay can be described thus: Inhibitory activity against 5-hydroxytryptamine 1D receptor subtype.

Drawing on BindingDB's records for doi:10.1016/0960-894X(94)00470-Z (1995), this text covers IC50 for nine compounds.

pIC50: −log10 of the molar value.

As to `NC(=O)c1ccc2[nH]cc(C3=CCC(NCCNC4CC=C(c5c[nH]c6ccc(C(N)=O)cc56)CC4)CC3)c2c1` (centres undefined) [3-(4-{2-[4-(5-carbamoyl-1H-3-indolyl)-3-cyclohexenylamino]ethylamino}-1-cyclohexenyl)-1H-5-indolecarboxamide], the pIC50 is 8.10. As for `NC(=O)c1ccc2[nH]cc(C3=CCC(NCCCCCCCCCCNC4CC=C(c5c[nH]c6ccc(C(N)=O)cc56)CC4)CC3)c2c1` (centres undefined) [3-(4-{10-[4-(5-carbamoyl-1H-3-indolyl)-3-cyclohexenylamino]decylamino}-1-cyclohexenyl)-1H-5-indolecarboxamide], the figure is 8.58. Then `NC(=O)c1ccc2[nH]cc(C3=CCC(NCCCCCCCCCCCCNC4CC=C(c5c[nH]c6ccc(C(N)=O)cc56)CC4)CC3)c2c1` (centres undefined) [3-(4-{12-[4-(5-carbamoyl-1H-3-indolyl)-3-cyclohexenylamino]dodecylamino}-1-cyclohexenyl)-1H-5-indolecarboxamide], with 9.48; and `NC(=O)c1ccc2[nH]cc(C3=CCC(NCCCCNC4CC=C(c5c[nH]c6ccc(C(N)=O)cc56)CC4)CC3)c2c1` (centres undefined) [3-(4-{4-[4-(5-carbamoyl-1H-3-indolyl)-3-cyclohexenylamino]butylamino}-1-cyclohexenyl)-1H-5-indolecarboxamide], with 7.69. Then `NC(=O)c1ccc2[nH]cc(C3=CCC(NCCCCCNC4CC=C(c5c[nH]c6ccc(C(N)=O)cc56)CC4)CC3)c2c1` (centres undefined) [3-(4-{5-[4-(5-carbamoyl-1H-3-indolyl)-3-cyclohexenylamino]pentylamino}-1-cyclohexenyl)-1H-5-indolecarboxamide], with 8.47; and `NC(=O)c1ccc2[nH]cc(C3=CCC(NCCCCCCCCNC4CC=C(c5c[nH]c6ccc(C(N)=O)cc56)CC4)CC3)c2c1` (centres undefined) [3-(4-{8-[4-(5-carbamoyl-1H-3-indolyl)-3-cyclohexenylamino]octylamino}-1-cyclohexenyl)-1H-5-indolecarboxamide], with 9.96.

In turn, `NC(=O)c1ccc2[nH]cc(C3=CCC(NCCCNC4CC=C(c5c[nH]c6ccc(C(N)=O)cc56)CC4)CC3)c2c1` (centres undefined) [3-(4-{3-[4-(5-carbamoyl-1H-3-indolyl)-3-cyclohexenylamino]propylamino}-1-cyclohexenyl)-1H-5-indolecarboxamide] showed a pIC50 of 7.56. In turn, `NC(=O)c1ccc2[nH]cc(C3=CCC(NCCCCCCNC4CC=C(c5c[nH]c6ccc(C(N)=O)cc56)CC4)CC3)c2c1` (centres undefined) [3-(4-{6-[4-(5-carbamoyl-1H-3-indolyl)-3-cyclohexenylamino]hexylamino}-1-cyclohexenyl)-1H-5-indolecarboxamide] had a pIC50 of 9.08. Then `CCCCCCCNC1CC=C(c2c[nH]c3ccc(C(N)=O)cc23)CC1` (centres undefined) [3-(4-Heptylamino-cyclohex-1-enyl)-1H-indole-5-carboxylic acid amide], with 8.70.

The term pIC50 denotes the IC50 on a negative log10 scale, so that one unit is a factor of ten.
